Source: article PMC4129108, “The natural triterpene 3β,6β,16β-trihydroxy-lup-20(29)-ene obtained from the flowers of Combretum leprosum induces apoptosis in MCF-7 breast cancer cells” (BMC Complementary and Alternative Medicine, 2014)
In brackets after ≈: the same amount, converted by molar mass.

Experiments:
[1] = tested on: CACO-2 (colorectal adenocarcinoma); assay: XTT cell viability assay, CACO-2; format: cell-based, human; conditions: for IC50: Homo sapiens, XTT
Protocol: The human cell lines MCF-7 (breast adenocarcinoma), HepG2 (hepatoma), T24 (bladder cancer), CACO-2 (colorectal adenocarcinoma) and MRC5 (lung normal fibroblast) were obtained from the Rio de Janeiro Cell Bank (Rio de Janeiro, RJ, Brazil). The HCT116 cell (colorectal carcinoma), and HT29 cell (colorectal adenocarcinoma) were kindly provided by Dr. Annette K. Larsen (Institut National de la Santé et de la Recherche Médicale - INSERM, Paris, França). All cell lines except MCF-7 were grown in DMEM supplemented with 10% or 20% (for CACO-2) FBS, 100 units.mL^-1 penicillin and 100 μg.mL^-1 streptomycin at 37°C in a humidified atmosphere of 5% CO2. MCF-7 cells were maintained in RPMI-1640 supplemented with 20% FBS at the same conditions described above.
The cytotoxic potential of the TTHL was evaluated by the XTT assay in human tumor cell lines as well as in MRC5 normal fibroblasts. Cells (1 × 10^4 cells) were seeded on 96-well plates in growth medium and incubated overnight. Afterwards, TTHL (0.5, 1.0, 2.5, 5.0, and 10 μg/mL) was added to each well and incubated for 24, 48, 72, and 120 h. Mitoxantrone, a cytostatic anthracenedione that intercalates in DNA and increases the incidence of double-strand breaks by stabilizing the cleavable complex of topoisomerase II and DNA, was used as positive control. At the end of each treatment, cell viability was assessed according to the manufacturer’s instructions. Briefly, after discarding the medium, 1 mL of XTT labeling mixture was added to the cells and incubated for 2 h at 37°C. Absorbance was measured with a SpectraMax reader (Bio-Rad, USA) at a test wavelength of 492 nm (A492) and a reference wavelength of 690 nm (A690). The final result corresponds to A492-A690. The absorbance of negative control cells was set as 100% viability, and the values for treated cells were calculated as a percentage of the control.
The IC20, IC50, and IC80 values and their 95% confidence intervals (CI 95%) were obtained by nonlinear regression using GraphPad Prism v5 program (Intuitive Software for Science, San Diego, CA, USA). Selective index (SI) was calculated by IC50 in MRC5 cells/IC50 in tumoral cells. All experiments were independently repeated at least three times, with triplicate samples for each treatment. Results are expressed as means ± standard deviation (SD). Data were analyzed by one-way analysis of variance (ANOVA), and means were compared using Tukey test, with P ≤ 0.05 considered as statistically significant.

[2] = tested on: S. cerevisiae EG133 (sod1Δsod2Δ); assay: Yeast survival assay, EG133 (sod1Δsod2Δ); format: cell-based, Saccharomyces cerevisiae; conditions: for survival (percentage in relation to negative control): STAT cells, 1 h in PBS 30°C
Protocol: (§1) Media, solutions and buffers were prepared according to Burke et al.. YPD medium (0.5% yeast extract, 2% peptone, 2% glucose) was used for routine growth. Synthetic medium SC (0.67% yeast nitrogen base, 0.1% ammonium sulfate, 2% glucose) supplemented with the appropriate amino acids and bases ([…]) was used for the detection of mutations.
(§2) Stationary phase (STAT) cultures were obtained by inoculation of a single colony into liquid YPD. We chose to work in the stationary phase of growth because this resembles most cells of multicellular organisms in important aspects: (i) most energy comes from mitochondrial respiration; (ii) the cells have left the active cell cycle and have entered the Go phase; and (iii) damage accumulates over time.
(§3) STAT cells (1 × 10^8 cells/mL) were exposed to TTHL (10–500 μg/mL) and incubated under growth conditions for 1 h in PBS at 30°C. Cells were then washed and treated with H2O2 (5 mM) in PBS for another hour. Suitable aliquots were plated in triplicate on solid YPD (2–3 days, 30°C) and colony-forming units were counted. Sensitivity was expressed as a percentage of survival in relation to the negative control (solvent).

[3] = tested on: S. cerevisiae EG110 (sod2Δ); assay: Yeast survival assay, EG110 (sod2Δ); format: cell-based, Saccharomyces cerevisiae; conditions: for survival (percentage in relation to negative control): STAT cells, 1 h in PBS 30°C
Protocol: as §1, §2, §3

MCF-7 cells = assay: Apoptosis by flow cytometry (Annexin V-PE/7-AAD); format: cell-based, human; conditions: MCF-7, 24 h
Protocol: (§4) Cells (2 × 10^5 cells/mL) were seeded on 6-well tissue culture plates, and grown for 1 day up to 70–80% confluence before treatment with the test substance. The TTHL was added to medium with FBS to obtain the different concentrations, and cells were treated at 37°C for 24 h in humidified atmosphere containing 5% CO2.
Annexin V-PE was used in conjunction with a vital dye, 7-AAD, to distinguish apoptotic (Annexin V-PE positive, 7-AAD negative) from necrotic (Annexin V-PE positive, 7-AAD positive) cells. After treatment, cells were trypsinized, collected and resuspended in 40 μL of binding buffer with 2 μL Annexin V-PE. Cells were incubated for 15 min in the dark at room temperature. After incubation, 160 μL of binding buffer and 2 μL of 7-AAD were added. Cells were incubated for 5 min and additional 200 μL of binding buffer were added. Before analysis, cells were filtered through a cell strainer cap fitted to a polystyrene round bottom flow cytometric tube. Data were collected and analyzed by a FACS Calibur flow cytometer with CellQuest software, in a total of 10,000 events per sample; fluorescence was measured and the percentage of viable, early apoptotic, late apoptotic and necrotic cells was determined.

[4] = tested on: cleaved caspase-9 in MCF-7 cells; assay: Quantification of cleaved caspase-9 by flow cytometric analysis; format: cell-based, human; conditions: MCF-7, 24 h
Protocol: as §4
After treatment, cells (1 × 10^6) were harvested, resuspended in 25 μL PBS and fixed with 4% formaldehyde. After permeabilization and blocking (0.2% Triton X-100 in PBS and 1% BSA), cells were incubated with anti-caspase-9 antibody (diluted 1:1000) for 1 h at room temperature, followed by incubation with anti-rabbit FITC secondary antibody (Uniscience) (diluted 1:1000) for 1 h at room temperature in the dark. A total of 10,000 events were analyzed per sample by FACS Calibur flow cytometer. Fluorescence intensity in arbitrary units was plotted in histograms; the mean fluorescence intensity was calculated using CellQuest software.

[5] = deficient in superoxide dismutase

C=C(C)[C@@H]1CC[C@@]2(C)[C@H]1[C@H]1CC[C@@H]3[C@@]4(C)CC[C@H](O)C(C)(C)[C@@H]4[C@H](O)C[C@@]3(C)[C@]1(C)C[C@@H]2O [TTHL, 3β,6β,16β-trihydroxy-lup-20(29)-ene]
IC50 ([1]; CACO-2, 24 h treatment): 8.55 ± 0.35 µg/mL (≈ 18.6 µM)
IC50 ([1]; CACO-2, 48 h treatment): 7.9 ± 0.28 µg/mL (≈ 17.2 µM)
IC50 ([1]; CACO-2, 72 h treatment): 6.35 ± 0.35 µg/mL (≈ 13.8 µM)
IC50 ([1]; CACO-2, 120 h treatment): 5 ± 0.19 µg/mL (≈ 10.9 µM)
Selectivity index (SI) ([1]; IC50 in MRC5 cells/IC50 in CACO-2, 24 h): MR (MR: more resistant in tumoral cells)
Selectivity index (SI) ([1]; IC50 in MRC5 cells/IC50 in CACO-2, 48 h): MR (MR: more resistant in tumoral cells)
Selectivity index (SI) ([1]; IC50 in MRC5 cells/IC50 in CACO-2, 72 h): 1 X
Selectivity index (SI) ([1]; IC50 in MRC5 cells/IC50 in CACO-2, 120 h): 1 X
survival (percentage in relation to negative control) ([2]; TTHL 10 μg/mL): 79.35 ± 2.19 %
survival (percentage in relation to negative control) ([2]; TTHL 50 μg/mL): 67.85 ± 10.54 %
survival (percentage in relation to negative control) ([2]; TTHL 100 μg/mL): 58.15 ± 3.89 %
survival (percentage in relation to negative control) ([2]; TTHL 500 μg/mL): 41.45 ± 4.03 %
sensitivity of the strain to TTHL (in words) [2, 5]: hypersensitive
survival (percentage in relation to negative control) ([3]; TTHL 10 μg/mL): 83.20 ± 3.68 %
survival (percentage in relation to negative control) ([3]; TTHL 50 μg/mL): 72.90 ± 7.07 %
survival (percentage in relation to negative control) ([3]; TTHL 100 μg/mL): 62.25 ± 3.32 %
survival (percentage in relation to negative control) ([3]; TTHL 500 μg/mL): 56.65 ± 1.06 %
sensitivity of the strain to TTHL (in words) [3, 5]: hypersensitive
apoptosis induced (% of MCF-7 cells) (MCF-7 cells; TTHL at IC50): 14%
percentage of necrotic cells (labeled with 7-AAD) (MCF-7 cells; TTHL at IC50): less than 5%
cells in early apoptosis (labeled with annexin V-PE) (MCF-7 cells; TTHL at IC80): approximately 55%
cells in late apoptosis (labeled with both annexin V-PE and 7-AAD) (MCF-7 cells; TTHL at IC80): 15%
percentage of necrotic cells (labeled with 7-AAD) (MCF-7 cells; TTHL at IC80): less than 5%
levels of cleaved caspase-9 ([4]; TTHL at IC20): no significant changes
induction of cleaved caspase-9-labeled cells ([4]; TTHL at IC50): increased induction of cleaved caspase-9-labeled cells
induction of cleaved caspase-9-labeled cells ([4]; TTHL at IC80): increased induction of cleaved caspase-9-labeled cells
